How the values were obtained:
SARS-CoV-2 = assay: Time-of-addition experiment in Calu-3 cells, plaque assay; assay type: cell-based
[1] = cited from earlier work
[2] = system: SARS-CoV-2 subgenomic replicon; assay type: cell-based; conditions: Vero E6-TMPRSS2 cells, 24 h
A549-ACE2 cells [3] = assay type: cell-based; conditions: 5 μM, 24 hours
A549-ACE2 cells [4] = assay type: cell-based

SMILES	time-of-addition profile (SARS-CoV-2)	pharmacokinetic profile [1]	viral RNA replication, subgenomic replicon [2]	morphology of A549-ACE2 cells expressing 2xFYVE PI3P marker (A549-ACE2 cells [3])	autolysosome number and autolysosome-to-autophagosome ratio relative to DMSO (A549-ACE2 cells [4])
Cc1cccc(/C=N/Nc2cc(N3CCOCC3)nc(OCCc3ccccn3)n2)c1 [Apilimod]	suppressed SARS-CoV-2 replication when added during the first two hpi, but not at later time points	suboptimal pharmacokinetic profile	dose-dependently increased viral RNA replication	cytosolic vacuolation and swelling of membrane structures	–
CCN(CC)CCCC(C)Nc1ccnc2cc(Cl)ccc12 (centres unmarked) [chloroquine]	–	–	–	–	moderately reduced

Reference: PMC12246422 (Nature Communications, 2025)
